Test results published in US4999359A, “Heterocyclic ethylene diamine compounds and their pharmaceutical compositions and methods” (Dr. Lo Zambeletti S.p.A., priority 1988, dated 1991).
Where a name gives a salt, the structure may show the parent alone. Read-outs that look alike come from different tables or passages of the source.

Assays:
[1] = system: mice (p-phenylquinone-induced abdominal writhing); assay: P-phenylquinone-induced abdominal writhing test in mice; format: in vivo; settings: Mus musculus, sc, p-phenylquinone i.p. 2 mg/Kg after 20 min pretreatment, calculated for the free base, read-out: ANALGESIA WRITHING ED50 (a)
Protocol: P-phenylquinone-induced abdominal writhing test in mice
The methodology employed is based on that described by Sigmund et al, Proc. Soc. Exptl. Biol. 95, 729/1957, modified by Milne and Twomey, Agents and Actions, 10, 31/1980.
Male Charles River mice (Swiss Strain), 25-36 g body weight, are used. Animals are allowed food and water ad libitum and are randomized into groups of 10 prior to experimentation. Test compounds are dissolved in either distilled water or distilled water plus 0.1M AMS, and administered by the subcutaneous route in a final volume of 10 ml/Kg. Control animals receive 10 ml/Kg of the appropriate vehicle alone. Following a pretreatment period of 20 min., mice are injected intraperitoneally with p-phenylquinone, 2 mg/Kg at 37° C. in a final volume of […]. Next, the mice are placed, in a groups of 3, in a compartmented perspex box maintained at room temperature and are observed for a period of 8 min. During this period the number of abdominal writhing responses per animal are recorded where writhing consists of an intermittent contraction of the abdomen associated with hind leg extension.
The degree of antinociceptive protection afforded by the test compound is determined as the mean number of writhing responses observed in the treated group (T) expressed as a percentage of the mean number of writhing responses in the control group (C) according to the following formula:
[1-(T/C)]×100%=% graded protection.

mice (tail-flick) = assay: animal or person; format: in vivo; settings: Mus musculus, sc, 0.5 h, read-out: ANALGESIA TAIL-FLICK ED50 (a)
kappa opioid receptors = target: T1, kappa opioid receptors (Cavia porcellus, UniProt P41144); assay: biochemical; format: binding, guinea pig
T1 construct: fresh guinea pig brain homogenate; from tissue; host or cells: guinea pig whole brain without cerebellum, homogenate
T1 sequence (P41144 whole entry): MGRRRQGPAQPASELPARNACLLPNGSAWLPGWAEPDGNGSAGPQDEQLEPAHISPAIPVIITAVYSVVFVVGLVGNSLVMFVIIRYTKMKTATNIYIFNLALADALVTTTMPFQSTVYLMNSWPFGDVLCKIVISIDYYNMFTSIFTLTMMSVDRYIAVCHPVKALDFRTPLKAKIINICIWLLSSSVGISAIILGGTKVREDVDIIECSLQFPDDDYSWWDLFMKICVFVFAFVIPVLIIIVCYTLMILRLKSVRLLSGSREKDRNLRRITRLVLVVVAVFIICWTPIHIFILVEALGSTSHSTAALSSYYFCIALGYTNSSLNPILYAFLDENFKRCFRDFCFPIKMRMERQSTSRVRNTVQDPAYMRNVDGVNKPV

μ opioid receptor = μ opioid receptor (Cavia porcellus, UniProt A0ACM8Q262); assay: Binding to μ sites (3H-DAGO), receptor affinity study; design: species or system guinea pig
Sequence of μ opioid receptor (A0ACM8Q262 1-400): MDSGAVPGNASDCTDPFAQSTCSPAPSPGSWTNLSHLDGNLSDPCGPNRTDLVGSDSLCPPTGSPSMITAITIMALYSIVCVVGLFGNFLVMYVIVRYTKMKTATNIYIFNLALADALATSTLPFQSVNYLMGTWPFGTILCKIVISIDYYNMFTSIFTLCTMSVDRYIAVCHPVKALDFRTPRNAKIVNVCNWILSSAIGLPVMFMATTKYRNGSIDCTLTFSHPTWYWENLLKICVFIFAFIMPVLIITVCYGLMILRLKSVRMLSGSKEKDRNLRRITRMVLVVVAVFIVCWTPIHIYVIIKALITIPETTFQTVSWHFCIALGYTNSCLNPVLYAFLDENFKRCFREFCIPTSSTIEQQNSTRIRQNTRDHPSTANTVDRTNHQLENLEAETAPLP

[2] = read-out: OPIATE RECEPTORS BINDING ki MU; guinea pig brain homogenate; 3H-DAGO; 40 min, 25° C.
[3] = read-out: OPIATE RECEPTORS BINDING ki MU

SMILES	ED50 [1]	ED50 (mice (tail-flick))	Ki (kappa opioid receptors)	Ki (μ opioid receptor; [2])	Ki (μ opioid receptor; [3])	Ki (μ opioid receptor; guinea pig brain homogenate; 3H-DAGO; 40 min, 25° C.; read-out: OPIATE RECEPTORS BINDING ki MU)
O=C(Cc1ccc(Cl)c(Cl)c1)N1CCc2sccc2C1CN1CCCC1 (single isomer, unassigned) [Example 9, (-)-4-(pyrrolidin-1-yl)methyl-5-(3,4-dichlorophenyl)acetyl-4,5,6,7-tetrahydrothieno[3,2-c]pyridine D(-) tartrate hemihydrate]	0.003 mg/kg	0.007 mg/kg	1.07 nM	47.2 nM		
O=C(Cc1ccc(Cl)c(Cl)c1)N1CCc2sccc2C1CN1CCCCC1 (single isomer, unassigned) [Example 10, (-)-4-(piperidin-1-yl)methyl-5-(3,4-dichlorophenyl)acetyl-4,5,6,7-tetrahydrothieno[3,2-c]pyridine L(+) tartrate hemihydrate]	0.01 mg/kg	0.041 mg/kg			500 nM	
O=C(Cc1ccc(C(F)(F)F)cc1)N1CCc2sccc2C1CN1CCCCC1 (single isomer, unassigned) [Example 13, (-)-4-(piperidin-1-yl)methyl-5-(4-trifluoromethylphenyl)acetyl-4,5,6,7-tetrahydrothieno[3,2-c]pyridine L(+) tartrate monohydrate]	0.01 mg/kg	0.054 mg/kg		468 nM		
CC(C1c2ccsc2CCN1C(=O)Cc1ccc(Cl)c(Cl)c1)N(C)C.Cl (single isomer, unassigned) [Example 18, 4-[1-(dimethylamino)ethyl]-5-(3,4-dichlorophenyl)acetyl-4,5,6,7-tetrahydrothieno[3,2-c]pyridine hydrochloride]	0.204 mg/kg	0.824 mg/kg				
Cl.O.O=C(Cc1ccc(Cl)c(Cl)c1)N1CCc2sccc2C1CN1CCCC1 (stereo not shown) [Example 3, 4-(pyrrolidin-1-yl)methyl-5-(3,4-dichlorophenyl)acetyl-4,5,6,7-tetrahydrothieno[3,2-c]pyridine hydrochloride monohydrate]	0.004 mg/kg	0.019 mg/kg	1.19 nM	85 nM		
Cl.O=C(Cc1ccc(C(F)(F)F)cc1)N1CCc2sccc2C1CN1CCCC1 (stereo not shown) [Example 4, 4-(pyrrolidin-1-yl)methyl-5-(4-trifluoromethylphenyl)acetyl-4,5,6,7-tetrahydrothieno[3,2-c]pyridine hydrochloride]	0.004 mg/kg	0.018 mg/kg	1.78 nM	39.2 nM		
Cl.O=C(Cc1ccc(Cl)c(Cl)c1)N1CCc2sccc2C1CN1CCCCC1 (stereo not shown) [Example 5, 4-(piperidin-1-yl)methyl-5-(3,4-dichlorophenyl)acetyl-4,5,6,7-tetrahydrothieno[3,2-c]pyridine hydrochloride]	0.022 mg/kg	0.09 mg/kg	1.29 nM	781 nM		
CN(C)CC1c2ccsc2CCN1C(=O)Cc1ccc(Cl)c(Cl)c1.Cl (stereo not shown) [Example 6, 4-dimethylaminomethyl-5-(3,4-dichlorophenyl)acetyl-4,5,6,7-tetrahydrothieno[3,2-c]pyridine hydrochloride]		0.042 mg/kg	1.75 nM	607 nM		
CN(C)CC1c2ccsc2CCN1C(=O)Cc1ccc(C(F)(F)F)cc1 (stereo not shown) [Example 7, 4-dimethylaminomethyl-5-(4-trifluoromethylphenyl)acetyl-4,5,6,7-tetrahydrothieno[3,2-c]pyridine 1.5 hydrochloride 1/3 hydrate]		0.093 mg/kg	3.46 nM		513 nM	
O=C(Cc1ccc(C(F)(F)F)cc1)N1CCc2sccc2C1CN1CCCCC1 (stereo not shown) [Example 12, 4-(piperidin-1-yl)methyl-5-(4-trifluoromethylphenyl)acetyl-4,5,6,7-tetrahydrothieno[3,2-c]pyridine]	0.034 mg/kg	0.09 mg/kg		793 nM		
O=C(Cc1ccc(Cl)c(Cl)c1)N1CCc2[nH]c3ccccc3c2C1CN1CCCC1 (stereo not shown) [Example 15, 1-(pyrrolidin-1-yl)methyl-2-(3,4-dichlorophenyl)acetyl-1,2,3,4-tetrahydro-5H-pyrido[4,3-b]indole hydrochloride hemihydrate]	> 10 mg/kg	> 10 mg/kg				
O=C(Cc1ccc(Cl)c(Cl)c1)N1CCc2[nH]c3ccccc3c2C1CN1CCCCC1 (stereo not shown) [Example 16, 1-(piperidin-1-yl)methyl-2-(3,4-dichlorophenyl)acetyl-1,2,3,4-tetrahydro-5H-pyrido[4,3-b]indole]	> 10 mg/kg	> 10 mg/kg				
O=C(Cc1ccc2c(c1)CCCC2)N1CCc2sccc2C1CN1CCCCC1 (stereo not shown) [Example 19, 4-(piperidin-1-yl)methyl-5-(5,6,7,8-tetrahydronapht-2-yl) acetyl-4,5,6,7-tetrahydrothieno[3,2-c]pyridine hydrochloride hemihydrate]	0.092 mg/kg	0.22 mg/kg				
O=C(Cc1ccc2c(c1)CCC2)N1CCc2sccc2C1CN1CCCCC1 (stereo not shown) [Example 20, 4-(piperidin-1-yl)methyl-5-(indan-5-yl)acetyl-4,5,6,7-tetrahydrothieno[3,2-c]pyridine hydrochloride 1/3 hydrate]	0.092 mg/kg	0.412 mg/kg				
O=C(Cc1ccc2c(c1)CCCC2)N1CCc2sccc2C1CN1CCCC1 (stereo not shown) [Example 21, 4-(pyrrolidin-1-yl)methyl-5-(5,6,7,8-tetrahydronapht-2-yl) acetyl-4,5,6,7-tetrahydrothieno[3,2-c]pyridine hydrochloride]	0.022 mg/kg	0.236 mg/kg		56 nM		
Cl.O=C(Cc1ccc2c(c1)CCC2)N1CCc2sccc2C1CN1CCCC1 (stereo not shown) [Example 22, 4-(pyrrolidin-1-yl)methyl-5-(indan-5-yl)acetyl-4,5,6,7-tetrahydrothieno[3,2-c]pyridine hydrochloride]	0.014 mg/kg	0.146 mg/kg		104 nM		
O=C(Cc1ccc(Cl)c(Cl)c1)N1CCc2[nH]cnc2C1CN1CCCC1 (stereo not shown) [Example 23, 4-(pyrrolidin-1-yl)methyl-5-(3,4-dichlorophenyl)acetyl-4,5,6,7-tetrahydroimidazo[4,5-c]pyridine]		> 50 mg/kg				> 1000 nM
